The subject of assay [1] is hCB1Rs. The assay is described as follows: Biased hCB1R signaling: ΔΔlog. Also on record: species or system human. Particulars: CHO-β2-hCB1, reference CP-55,940; for GTPγS / β-Arrestin 2 (Operational) Bias Factor: 10^ΔΔlog(τ/KA); for AC / β-Arrestin 2 (Competitive) ΔΔLog(τ/KA) / AC / β-Arrestin 2 (Operational) ΔΔLog(τ/KA) / GTPγS / β-Arrestin 2 (Competitive) ΔΔLog(τ/KA) / GTPγS / β-Arrestin 2 (Operational) ΔΔLog(τ/KA): 95% confidence interval in parentheses.

The target of assay [2] is T1, hCB1Rs (Homo sapiens, UniProt P21554). Type of assay: binding. To be noted: 0.2 nM [^3H]-CP55,940; for ^3H-CP-55,940 Binding pKi: mean ± S.E.M.; for Ki: read-out: ^3H-CP-55,940 Binding Ki.
Assay [3] addresses T1, hCB1Rs. The experiment in a line: [^35S]GTPγS binding. Type of assay: biochemical. To be noted: for ^35S-GTPγS Binding Assay ΔLog(τ/KA): CHO-β2-hCB1, normalized to reference CP-55,940, 95% CI printed in the cell; for ^35S-GTPγS Binding Assay EMAX: fraction of the effect produced by the reference agonist CP-55,940; for EC50: read-out: ^35S-GTPγS Binding Assay EC50.
For assay [4], the target named is T1, hCB1Rs. The assay is described as follows: Forskolin-stimulated intracellular cAMP levels. Type of assay: cell-based. To be noted: for cAMP Assay Log(τ/KA): Black-Leff operational model; for cAMP Assay pIC50 / cAMP Assay IMAX / IC50: intact CHO-β2-hCB1 cells; for cAMP Assay pIC50 / IC50: 10 µM forskolin; for cAMP Assay IMAX: fraction of the effect produced by the reference agonist CP-55,940; for IC50: read-out: cAMP Assay IC50. On the technique in general: cAMP levels reflect the balance of adenylyl cyclase and phosphodiesterase activity.

Assay [5] deals with T1, hCB1Rs. The format is cell-based. To be noted: for β-Arrestin 2 Assay (Operational) ΔLog(τ/KA): normalized to reference CP-55,940; for β-Arrestin 2 Assay (Operational) Log(τ/KA): operational model; for β-Arrestin 2 Assay EMAX / β-Arrestin 2 Assay pEC50 / EC50: CHO-β2-hCB1 cells; for β-Arrestin 2 Assay EMAX: 90 min, fraction of the effect produced by the reference agonist CP-55,940; for β-Arrestin 2 Assay pEC50 / EC50: 90 min incubation; for EC50: read-out: β-Arrestin 2 Assay EC50.

The target in assay [6] is T1, hCB1Rs. The experiment in a line: CB1 receptor down-regulation after chronic drug exposure. Type of assay: cell-based.
The target of assay [7] is T1, hCB1Rs. The assay is described as follows: CB1 receptor desensitization after chronic drug exposure. The format is cell-based. To be noted: CHO-hCB1-Rx cells; at 1 hr; CP-55,940 10^−7 M or PNR-4-20 10^−5 M.
The test system of the next assay is NIH-Swiss mice. The assay is described as follows: In vivo cannabinoid tetrad. Also on record: species or system mouse.
Another assay concerns hCB1 and hCB2Rs. Particulars: ref [29]; cited from earlier work.
The mark [8] stands for this setting: CHO-β2-hCB1, 95% CI printed in the cell.

Several values for one entry are separate records, joined by “and”; a condition that tells them apart may be missing. Equal entries are not always repeated. Where two headings read alike, the source gives them in different places. Marks after values point to notes of the source that are not given here.

T1 sequence (P21554 whole entry): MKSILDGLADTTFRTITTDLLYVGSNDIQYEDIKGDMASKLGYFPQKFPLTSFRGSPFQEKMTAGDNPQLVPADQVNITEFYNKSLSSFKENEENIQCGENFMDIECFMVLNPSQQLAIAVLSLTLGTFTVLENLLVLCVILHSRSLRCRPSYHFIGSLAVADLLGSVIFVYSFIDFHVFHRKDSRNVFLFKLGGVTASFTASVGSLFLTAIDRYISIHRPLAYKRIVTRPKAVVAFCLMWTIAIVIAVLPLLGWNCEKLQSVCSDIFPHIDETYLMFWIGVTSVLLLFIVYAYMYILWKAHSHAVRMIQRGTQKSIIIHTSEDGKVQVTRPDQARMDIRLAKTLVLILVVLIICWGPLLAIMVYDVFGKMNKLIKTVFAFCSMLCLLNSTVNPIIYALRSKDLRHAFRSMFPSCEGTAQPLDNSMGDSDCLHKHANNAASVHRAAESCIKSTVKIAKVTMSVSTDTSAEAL

For `CCCCCCC(C)(C)c1ccc([C@@H]2C[C@H](O)CC[C@H]2CCCO)c(O)c1` [CP-55,940], in the assay with hCB1Rs [1], the “AC / β-Arrestin 2 (Competitive) Bias Factor” value came out at 1.00, the “AC / β-Arrestin 2 (Operational) Bias Factor” value stood at 1.00, the “GTPγS / β-Arrestin 2 (Competitive) Bias Factor” value amounted to 1.00 and the “GTPγS / β-Arrestin 2 (Operational) Bias Factor” value amounted to 1.0. Besides, in the assay on hCB1Rs [1], the “AC / β-Arrestin 2 (Competitive) ΔΔLog(τ/KA)” value is recorded as 0.0, the “AC / β-Arrestin 2 (Operational) ΔΔLog(τ/KA)” value is recorded as 0.0, the “GTPγS / β-Arrestin 2 (Competitive) ΔΔLog(τ/KA)” value came out at 0.0 and the “GTPγS / β-Arrestin 2 (Operational) ΔΔLog(τ/KA)” value came out at 0.0.

For orientation: EC50 means the concentration at which the effect is half-maximal. For orientation: IC50 means the concentration needed to halve the response being measured. Take `CCCCCn1cc(C(=O)c2cccc3ccccc23)c2ccccc21` [JWH-018, reference compound]: the “^3H-CP-55,940 Binding pKi” value on hCB1Rs [2] (CHO-β2-hCB1 membranes) was 9.12±0.06^a. For the same molecule, the “^35S-GTPγS Binding Assay ΔLog(τ/KA)” value on hCB1Rs [3] is reported as −0.12^a (−0.69 to −0.45). Also, on hCB1Rs [3] (CHO-β2-hCB1 membranes), the “^35S-GTPγS Binding Assay pEC50” value is recorded as 9.25±0.23^a; the “^35S-GTPγS Binding Assay EMAX” value is 1.02 ± 0.10 fractional units and 1.02±0.10^a fractional units; the 50% effective concentration (EC50) worked out at 0.749 nM. In addition, at hCB1Rs [4] (setting [8]), the “cAMP Assay Log(τ/KA)” value is 8.56^b (8.17 to 8.94). Also, on hCB1Rs [4], the “cAMP Assay pIC50” value is reported as 8.82±0.15^b, the “cAMP Assay IMAX” value is given as 0.90±0.05^a and the IC50 amounted to 1.73 nM. Also, at hCB1Rs [5] (setting [8]), the “β-Arrestin 2 Assay (Operational) ΔLog(τ/KA)” value was 0.18^a (−0.15 to 0.51) and the “β-Arrestin 2 Assay (Operational) Log(τ/KA)” value is given as 7.27^a (7.20 to 7.34). Further, on hCB1Rs [5], the “β-Arrestin 2 Assay EMAX” value is 1.16 ± 0.16 fractional units and 1.16±0.16^a fractional units; the “β-Arrestin 2 Assay pEC50” value was 7.17±0.08^a; the EC50 is 78.1 nM. For the same molecule, in the assay with hCB1Rs [1], the “AC / β-Arrestin 2 (Operational) Bias Factor” value is on record as 0.21; the “CB1R bias between G protein-dependent and β-arrestin 2 signaling (in words)” value is “little CB1R bias”; the “GTPγS / β-Arrestin 2 (Operational) Bias Factor” value was determined as 2.0; the “GTPγS / β-Arrestin 2 (Operational) ΔΔLog(τ/KA)” value is 0.30 (−0.20 to 0.81).

Broadly, the Ki is a measure of affinity in units of concentration, obtained from inhibition or displacement. Take `O=C1/C(=C/c2cn(Cc3ccc(F)cc3)c3ccccc23)N2CCC1CC2` [PNR-4-20]: on hCB1Rs [2] (CHO-hCB1-Rx membranes), the “^3H-CP-55,940 Binding pKi” value is recorded as 7.11±0.13 and the Ki came out at 85.1 nM. Besides, on hCB1Rs [2] (CHO-β2-hCB1 membranes), the “^3H-CP-55,940 Binding pKi” value was 6.83±0.03^b and the inhibitory constant (Ki) is 159 nM. On hCB1Rs [3] (CHO-hCB1-Rx membranes), the “^35S-GTPγS Binding Assay pEC50” value is given as 6.89±0.09 and the EC50 was found to be 130 nM. On hCB1Rs [3], the “^35S-GTPγS Binding Assay ΔLog(τ/KA)” value is −1.99^b (−2.54 to −1.43). Also, on hCB1Rs [3] (CHO-β2-hCB1 membranes), the “^35S-GTPγS Binding Assay pEC50” value is listed as 7.29±0.09^b, the “^35S-GTPγS Binding Assay EMAX” value amounted to 1.02 ± 0.10 fractional units and the concentration for a half-maximal effect (EC50) was 53.9 nM. At hCB1Rs [3] (CHO-β2-hCB1 membranes, listed as PNR-420), the “^35S-GTPγS Binding Assay EMAX” value is listed as 1.02±0.10^a fractional units. Besides, the “cAMP Assay Log(τ/KA)” value at hCB1Rs [4] (setting [8]) is 6.45^c (6.02 to 6.88). Further, the “cAMP Assay ΔLog(τ/KA)” value at hCB1Rs [4] (CHO-β2-hCB1, normalized to reference CP-55,940, 95% CI printed in the cell) is reported as −1.25^c (−1.58 to −0.93). On hCB1Rs [4], the “cAMP Assay pIC50” value was 6.97±0.34^a,c, the “cAMP Assay IMAX” value was 1.26±0.10^a and the IC50 is 180 nM. In addition, the “β-Arrestin 2 Assay (Competitive) Log(τ/KA)” value on hCB1Rs [5] (CHO-β2-hCB1, competitive operational model, 95% CI printed in the cell) was 4.84^b (4.53 to 5.16). On hCB1Rs [5] (setting [8]), the “β-Arrestin 2 Assay (Operational) ΔLog(τ/KA)” value is on record as −2.72^b (−3.33 to −2.10) and the “β-Arrestin 2 Assay (Operational) Log(τ/KA)” value was 4.37^b (3.82 to 4.93). In addition, on hCB1Rs [5], the “β-Arrestin 2 Assay EMAX” value is on record as 0.24 ± 0.02 fractional units, the “β-Arrestin 2 Assay pEC50” value is 5.28±0.06^b and the EC50 worked out at 5410 nM. Besides, the “β-Arrestin 2 Assay EMAX” value on hCB1Rs [5] (listed as PNR-420) is given as 0.24±0.02^b fractional units. The “effect on β-arrestin 2 recruitment produced by CP-55,940 (co-incubation)” value on hCB1Rs [5] (CP-55,940 10^−7 M, test ligand 10^−7 to 10^−4 M) is “decreased”. In the assay with hCB1Rs [1], the “AC / β-Arrestin 2 (Competitive) Bias Factor” value is 13.5, the “AC / β-Arrestin 2 (Operational) Bias Factor” value is recorded as 29.5, the “GTPγS / β-Arrestin 2 (Competitive) Bias Factor” value was 2.5 and the “GTPγS / β-Arrestin 2 (Operational) Bias Factor” value was found to be 5.4. In addition, in the assay on hCB1Rs [1], the “AC / β-Arrestin 2 (Competitive) ΔΔLog(τ/KA)” value is on record as 1.13 (0.7 to 1.56), the “AC / β-Arrestin 2 (Operational) ΔΔLog(τ/KA)” value is listed as 1.47 (0.93 to 2.00), the “GTPγS / β-Arrestin 2 (Competitive) ΔΔLog(τ/KA)” value is 0.40 (0.09 to 0.89) and the “GTPγS / β-Arrestin 2 (Operational) ΔΔLog(τ/KA)” value was 0.73 (0.09 to 1.36). For the same molecule, the “effect of chronic exposure on KD of [^3H]-CP-55,940” value on hCB1Rs [6] (10 hr exposure, data not shown) was “does not alter the KD of [^3H]-CP-55,940”. On hCB1Rs [6] (CHO-hCB1-Rx cells, 10 hrs exposure, PNR-4-20 10^−5 M), the “reduction in binding (hCB1R density)” value was determined as 42.2 ± 1.7%. Further, the “maximal reduction of hCB1R density” value at hCB1Rs [6] (CHO-hCB1-Rx cells, PNR-4-20 10^−5 M, 0 to 10 hrs) stood at 76.4 ± 3.6%. The “maximal reduction of CB1R density” value at hCB1Rs [6] (CHO-β2-hCB1 cells, at 2 hrs, CP-55,940 10^−7 M or PNR-4-20 10^−5 M) was found to be 39.7 ± 4.9%. Moreover, the “maximal reduction of G protein activation by CP-55,940 (10^−7 M)” value at hCB1Rs [7] came to 46.0 ± 5.8%. Further, in the assay with NIH-Swiss mice (NIH-Swiss mice, 10, 30, or 100 mg/kg i.p., assessed 35 min after injection), the “activity in the cannabinoid tetrad” value is listed as “exhibits activity consistent with that of a CB1R agonist in all four measures of the cannabinoid tetrad”. Also, the “time of peak hypothermic effects after injection” value in the assay with NIH-Swiss mice (mice, radiotelemetry pilot studies, 5-min intervals, data not shown) was found to be 35 min. The “selectivity of binding between hCB1 and hCB2Rs” value in the assay with hCB1 and hCB2Rs was “bind relatively non-selectively to hCB1 and hCB2Rs”.

With `Cc1c(C(=O)NN2CCCCC2)nn(-c2ccc(Cl)cc2Cl)c1-c1ccc(Cl)cc1` [rimonabant, reference compound], the “reversal of PNR-4-20 tetrad effects by co-administered antagonist” value in the assay on NIH-Swiss mice (rimonabant 10 mg/kg with 100 mg/kg PNR-4-20, i.p., mice) was “significant reversal of the effects of PNR-4-20 on rectal temperature and catalepsy”.
